# From patent publication US20230041563A1, “N-(1,3,4-OXADIAZOL-2-YL)ARYLCARBOXAMIDES OR SALTS THEREOF, PREPARATION METHODS, HERBICIDAL COMPOSITIONS AND USES THEREOF” (priority 2018, published 2023)
# Read-outs that look alike come from different tables or passages of the source.
# System: weeds
# Assay: Actual control effects and combined effects of mixtures of active ingredients (i) and (ii), stem-leaf treatment, Gowing method
# Type: in vivo
# Conditions: 20 days; for pest or weed control at 450 g/ha: (ii) 30 g a.i./mu
# Method: According to the actual control effect and the property of the herbicides, the balance of the formula and other factors, the optimal ratio was determined. In the calculation formula: X represents the fresh weight inhibition rate when the active ingredient (i) is used in an amount of P; and Y represents the fresh weight inhibition rate when the active ingredient (ii) is used in an amount of Q. The statistical results are shown in Tables 9-11 below.
# [1] = 480 h, Echinochloa phyllopogon, (ii) 15 g a.i./mu, stem-leaf treatment, read-out: Control effect of (ii) alone at corresponding dose
# [2] = Echinochloa phyllopogon, (ii) 15 g a.i./mu
# [3] = 480 h, Echinochloa phyllopogon, (ii) 3 g a.i./mu, stem-leaf treatment, read-out: Control effect of (ii) alone at corresponding dose
# [4] = Echinochloa phyllopogon, (ii) 3 g a.i./mu
compound,measurement,setting,value
CCCCCCCC(=O)Oc1c(Br)cc(C#N)cc1Br [Bromoxynil octanoate],pest or weed control at 9 g/ha,"480 h, Sagittaria trifolia L., (ii) 0.6 g a.i./mu, read-out: Control effect of (ii) alone at corresponding dose",6.4%
same,pest or weed control at 45 g/ha,"480 h, Sagittaria trifolia, (ii) 3 g a.i./mu, stem-leaf treatment, read-out: Control effect of (ii) alone at corresponding dose",12.5%
same,Control effect of (ii) alone at corresponding dose,"Sagittaria trifolia L., (ii) 3 g a.i./mu",12.5%
COP(=S)(OC)SCC(=O)N(c1ccc(Cl)cc1)C(C)(C)C [Anilofos],pest or weed control at 45 g/ha,"Dinebra chinensis, 480 h, Leptochloa chinensis, (ii) 3 g a.i./mu, stem-leaf treatment, read-out: Control effect of (ii) alone at corresponding dose",30.8%
same,pest or weed control at 450 g/ha,"Dinebra chinensis, 480 h, Leptochloa chinensis, read-out: Control effect of (ii) alone at corresponding dose",62.6%
same,Control effect of (ii) alone at corresponding dose,"Leptochloa chinensis, (ii) 3 g a.i./mu",30.8%
CS(=O)(=O)c1ccc(C(=O)C2C(=O)CCCC2=O)c([N+](=O)[O-])c1 [Mesotrione],pest or weed control at 9 g/ha,"480 h, Cyperus difformis, (ii) 0.6 g a.i./mu, read-out: Control effect of (ii) alone at corresponding dose",29.5%
same,pest or weed control at 15 g/ha,"480 h, Cyperus difformis, (ii) 1 g a.i./mu, stem-leaf treatment, read-out: Control effect of (ii) alone at corresponding dose",50.4%
same,Control effect of (ii) alone at corresponding dose,"Cyperus difformis, (ii) 1 g a.i./mu",50.4%
CCCCOCN(C(=O)CCl)c1c(CC)cccc1CC [Butachlor],pest or weed control at […],[1],19.3%
same,pest or weed control at 450 g/ha,"480 h, Echinochloa phyllopogon, read-out: Control effect of (ii) alone at corresponding dose",39.7%
same,Control effect of (ii) alone at corresponding dose,[2],19.3%
CCC(C)Nc1c([N+](=O)[O-])cc(C(C)(C)C)cc1[N+](=O)[O-] (stereo not drawn) [Butralin],pest or weed control at 45 g/ha,"480 h, Cyperus difformis, (ii) 3 g a.i./mu, stem-leaf treatment, read-out: Control effect of (ii) alone at corresponding dose",16.4%
same,pest or weed control at 450 g/ha,"480 h, Cyperus difformis, read-out: Control effect of (ii) alone at corresponding dose",46.8%
same,Control effect of (ii) alone at corresponding dose,"Cyperus difformis, (ii) 3 g a.i./mu",16.4%
CCCCOC(=O)[C@@H](C)Oc1ccc(Oc2ccc(C#N)cc2F)cc1 [Cyhalofop-butyl],pest or weed control at 45 g/ha,[3],12.2%
same,pest or weed control at […],"480 h, Echinochloa phyllopogon, (ii) 15 g a.i./mu, read-out: Control effect of (ii) alone at corresponding dose",45.1%
same,Control effect of (ii) alone at corresponding dose,[4],12.2%
CCC(=O)Nc1ccc(Cl)c(Cl)c1 [Propanil],pest or weed control at 27 g/ha,"480 h, Cyperus difformis, (ii) 1.8 g a.i./mu, read-out: Control effect of (ii) alone at corresponding dose",9.2%
same,pest or weed control at […],"480 h, Cyperus difformis, (ii) 15 g a.i./mu, stem-leaf treatment, read-out: Control effect of (ii) alone at corresponding dose",46.2%
same,Control effect of (ii) alone at corresponding dose,"Cyperus difformis, (ii) 15 g a.i./mu",46.2%
"O=C(O)CCCOc1ccc(Cl)cc1Cl [2,4-D butyric acid]",Control effect of (ii) alone at corresponding dose,"Monochoria vaginalis, (ii) 3 g a.i./mu",23.5%
same,Control effect of (ii) alone at corresponding dose,"Monochoria vaginalis, (ii) 3 g a.i./mu, stem-leaf treatment",23.5%
same,Control effect of (ii) alone at corresponding dose,"Monochoria vaginalis, (ii) 15 g a.i./mu",65.3%
same,Control effect of (ii) alone at corresponding dose,"Monochoria vaginalis, (ii) 15 g a.i./mu, stem-leaf treatment",65.3%
CN(C(=O)COc1nc2ccccc2s1)c1ccccc1 [Mefenacet],pest or weed control at 45 g/ha,[3],19.2%
same,pest or weed control at […],[1],46.7%
same,Control effect of (ii) alone at corresponding dose,[4],19.2%
same,Control effect of (ii) alone at corresponding dose,[2],46.7%
CSc1nc(NC(C)C)nc(NC(C)C)n1 [Prometryn],pest or weed control at 9 g/ha,"480 h, Echinochloa phyllopogon, (ii) 0.6 g a.i./mu, stem-leaf treatment, read-out: Control effect of (ii) alone at corresponding dose",21.5%
same,pest or weed control at 300 g/ha,"480 h, Echinochloa phyllopogon, (ii) 20 g a.i./mu, stem-leaf treatment, read-out: Control effect of (ii) alone at corresponding dose",68.2%
same,Control effect of (ii) alone at corresponding dose,"Echinochloa phyllopogon, (ii) 0.6 g a.i./mu",21.5%
same,Control effect of (ii) alone at corresponding dose,"Echinochloa phyllopogon, (ii) 20 g a.i./mu",68.2%
CC1(C)CON(Cc2ccccc2Cl)C1=O [Clomazone],pest or weed control at 45 g/ha,"Dinebra chinensis, 480 h, Leptochloa chinensis, (ii) 3 g a.i./mu, read-out: Control effect of (ii) alone at corresponding dose",16.8%
same,pest or weed control at […],"Dinebra chinensis, 480 h, Leptochloa chinensis, (ii) 15 g a.i./mu, stem-leaf treatment, read-out: Control effect of (ii) alone at corresponding dose",53.6%
same,Control effect of (ii) alone at corresponding dose,"Leptochloa chinensis, (ii) 15 g a.i./mu",53.6%
C#CCN(C)c1c(C#N)cnn1-c1nn2c(c1Cl)CCCC2 [Pyraclonil],Control effect of (ii) alone at corresponding dose,"Sagittaria trifolia L., (ii) 0.6 g a.i./mu",9.3%
same,Control effect of (ii) alone at corresponding dose,"Sagittaria trifolia L., (ii) 15 g a.i./mu",72.5%
same,Control effect of (ii) alone at corresponding dose,"Sagittaria trifolia, (ii) 15 g a.i./mu, stem-leaf treatment",72.5%
